Measurements as given in ChEMBL document CHEMBL4196011, “The lead optimization of the polyamine conjugate of flavonoid with a naphthalene motif: Synthesis and biological evaluation” (Eur J Med Chem, 2018).
The source made the active and inactive calls. The rule behind the calls is not given here.

How the values were obtained:
[1] = tested on: HepG2; experiment: Induction of autophagy in human HepG2 cells assessed as formation of autolysosomes after 48 hrs by MDC staining-based assay; format: functional, cell-based
[2] = tested on: HepG2; experiment: Induction of apoptosis in human HepG2 cells assessed as late apoptotic cells at 5 uM after 48 hrs by Annexin V-FITC/propidium iodide staining-based flow cytometry (reference value: 0.95%); format: functional
[3] = Drug uptake in human HepG2 cells assessed as PAT-mediated compound uptake at 10 uM after 8 hrs in presence of spermidine by HCS analysis; format: ADME, cell-based; conditions: hepg2, 8 h
[4] = tested on: HepG2; experiment: Induction of apoptosis in human HepG2 cells assessed as early apoptotic cells at 7.5 uM after 24 hrs by Annexin V-FITC/propidium iodide staining-based flow cytometry (reference value: 2.07%); format: functional
[5] = tested on: HepG2; experiment: Induction of autophagy in human HepG2 cells assessed as increase in LC3-2 expression at 5 uM by Western blot analysis; format: functional, cell-based
[6] = tested on: HepG2; experiment: Induction of apoptosis in human HepG2 cells assessed as late apoptotic cells at 7.5 uM after 24 hrs by Annexin V-FITC/propidium iodide staining-based flow cytometry (reference value: 0.88%); format: functional
[7] = tested on: HepG2; experiment: Induction of apoptosis in human HepG2 cells assessed as early apoptotic cells at 2.5 uM after 8 hrs by Annexin V-FITC/propidium iodide staining-based flow cytometry (reference value: 1.29%); format: functional
[8] = tested on: HepG2; experiment: Induction of apoptosis in human HepG2 cells assessed as viable cells at 7.5 uM after 8 hrs by Annexin V-FITC/propidium iodide staining-based flow cytometry (reference value: 97.43%); format: functional; conditions: HepG2, 8 h, read-out: Activity
[9] = tested on: HepG2; experiment: Induction of apoptosis in human HepG2 cells assessed as necrotic cells at 2.5 uM after 8 hrs by Annexin V-FITC/propidium iodide staining-based flow cytometry (reference value: 0.40%); format: functional
[10] = tested on: HepG2; experiment: Cytotoxicity in human HepG2 cells assessed as gain in lysosomal mass/pH after 48 hrs by LysoTracker Red dye-based fluorescence assay; format: functional, cell-based
[11] = tested on: Mus musculus; experiment: Toxicity in Kunming mouse xenografted with […] H22 cells assessed as effect on kidney weight index at 30 mg/kg, iv administered for 7 consecutive days; format: organism-based; conditions: in vivo
[12] = tested on: HepG2; experiment: Antiproliferative activity against human HepG2 cells after 48 hrs by MTT assay; format: functional, cell-based; conditions: HepG2, 48 h
[13] = tested on: HepG2; experiment: Induction of autophagy in human HepG2 cells assessed as increase in LC3-2 expression at 5 uM in presence of autophagy inhibitor 3-MA by Western blot analysis; format: functional, cell-based
[14] = tested on: HepG2; experiment: Induction of apoptosis in human HepG2 cells assessed as late apoptotic cells at 5 uM after 8 hrs by Annexin V-FITC/propidium iodide staining-based flow cytometry (reference value: 0.88%); format: functional
[15] = tested on: HepG2; experiment: Induction of apoptosis in human HepG2 cells assessed as decrease in Bcl2 protein expression after 48 hrs by immunofluorescence staining-based high content screening assay; format: functional, cell-based
[16] = tested on: HeLa; experiment: Antiproliferative activity against human HeLa cells after 48 hrs by MTT assay; format: functional, cell-based
[17] = tested on: HepG2; experiment: Induction of apoptosis in human HepG2 cells assessed as early apoptotic cells at 2.5 uM after 24 hrs by Annexin V-FITC/propidium iodide staining-based flow cytometry (reference value: 2.07%); format: functional
[18] = tested on: HepG2; experiment: Induction of apoptosis in human HepG2 cells assessed as necrotic cells at 5 uM after 36 hrs by Annexin V-FITC/propidium iodide staining-based flow cytometry (reference value: 0.24%); format: functional
[19] = tested on: HepG2; experiment: Induction of apoptosis in human HepG2 cells assessed as increase in Bid expression levels after 48 hrs by immunofluorescence staining-based high content screening assay; format: functional, cell-based
[20] = tested on: HCT-116; experiment: Antiproliferative activity against human HCT116 cells after 48 hrs by MTT assay; format: functional, cell-based; conditions: HCT-116, 48 h
[21] = tested on: HepG2; experiment: Induction of apoptosis in human HepG2 cells assessed as necrotic cells at 5 uM after 8 hrs by Annexin V-FITC/propidium iodide staining-based flow cytometry (reference value: 0.40%); format: functional
[22] = tested on: HepG2; experiment: Induction of apoptosis in human HepG2 cells assessed as late apoptotic cells at 2.5 uM after 8 hrs by Annexin V-FITC/propidium iodide staining-based flow cytometry (reference value: 0.88%); format: functional
[23] = tested on: HepG2; experiment: Induction of apoptosis in human HepG2 cells assessed as early apoptotic cells at 7.5 uM after 48 hrs by Annexin V-FITC/propidium iodide staining-based flow cytometry (reference value: 1.30%); format: functional
[24] = Drug localization in golgi apparatus of human HepG2 cells at 7.5 uM after 8 hrs by Golgi-Tracker Red dye-based confocal fluorescence microscopic analysis; format: ADME, subcellular; conditions: hepg2, 8 h
[25] = tested on: HepG2; experiment: Induction of apoptosis in human HepG2 cells assessed as early apoptotic cells at 5 uM after 8 hrs by Annexin V-FITC/propidium iodide staining-based flow cytometry (reference value: 1.29%); format: functional
[26] = tested on: HepG2; experiment: Induction of apoptosis in human HepG2 cells assessed as viable cells at 5 uM after 24 hrs by Annexin V-FITC/propidium iodide staining-based flow cytometry (reference value: 96.97%); format: functional; conditions: HepG2, 24 h, read-out: Activity
[27] = tested on: HepG2; experiment: Induction of apoptosis in human HepG2 cells assessed as early apoptotic cells at 7.5 uM after 36 hrs by Annexin V-FITC/propidium iodide staining-based flow cytometry (reference value: 2.08%); format: functional
[28] = tested on: Mus musculus; experiment: Toxicity in Kunming mouse xenografted with […] H22 cells assessed as effect on body weight at 30 mg/kg, iv administered for 7 consecutive days; format: organism-based; conditions: in vivo
[29] = target: MAP kinase p38 (Homo sapiens) (UniProt O15264+Q15759+Q16539+P53778); experiment: Induction of p38 phosphorylation in human HepG2 cells after 48 hrs by immunofluorescence staining-based high content screening assay; format: cell-based
[30] = tested on: HepG2; experiment: Induction of apoptosis in human HepG2 cells assessed as viable cells at 7.5 uM after 36 hrs by Annexin V-FITC/propidium iodide staining-based flow cytometry (reference value: 96.6%); format: functional; conditions: HepG2, 36 h, read-out: Activity
[31] = tested on: HepG2; experiment: Induction of apoptosis in human HepG2 cells assessed as viable cells at 7.5 uM after 48 hrs by Annexin V-FITC/propidium iodide staining-based flow cytometry (reference value: 96.67%); format: functional; conditions: HepG2, 48 h, read-out: Activity
[32] = tested on: HepG2; experiment: Induction of ROS generation in human HepG2 cells after 48 hrs by DCFH-DA staining-based fluorescence assay; format: functional, cell-based
[33] = tested on: HepG2; experiment: Induction of apoptosis in human HepG2 cells assessed as upregulation of active caspase 9 level after 48 hrs by immunofluorescence staining-based high content screening assay; format: functional, cell-based
[34] = tested on: HepG2; experiment: Induction of apoptosis in human HepG2 cells assessed as viable cells at 7.5 uM after 24 hrs by Annexin V-FITC/propidium iodide staining-based flow cytometry (reference value: 96.97%); format: functional; conditions: HepG2, 24 h, read-out: Activity
[35] = Drug localization in lysosomes of human HepG2 cells at 7.5 uM after 8 hrs by LysoTracker Red dye-based confocal fluorescence microscopic analysis; format: ADME, subcellular, Lysosome; conditions: hepg2, 8 h
[36] = tested on: HepG2; experiment: Induction of apoptosis in human HepG2 cells assessed as increase in cleaved PARP1 levels after 48 hrs by immunofluorescence staining-based high content screening assay; format: functional, cell-based

Structure (SMILES): COc1ccc2cc(-c3oc4c(CNCCCCN)cccc4c(=O)c3OC)ccc2c1Br.Cl.Cl
- Activity [1]: Dose-dependent effect
- Activity [2]: 9.87%
- Drug uptake [3]: Not Active
- Activity [4]: 18.85%
- Activity [5]: Active
- Activity [6]: 9.48%
- Activity [7]: 2.06%
- viability at 7.5 µM [8]: 78.5%
- Activity [9]: 0.3%
- Activity [10]: Dose-dependent effect
- Activity [11]: Non-Toxic
- IC50 [12]: 7.1 µM
- Activity [13]: inactive
- Activity [14]: 1.91%
- Activity [15]: Active
- IC50 [16]: 5.9 µM
- Activity [17]: 10.46%
- Activity [18]: 0.09%
- Activity [19]: Dose-dependent effect
- IC50 [20]: 15.1 µM
- Activity [21]: 0.03%
- Activity [22]: 1.52%
- Activity [23]: 23.02%
- Drug uptake [24]: Not Active
- Activity [25]: 5.06%
- viability at 5 µM [26]: 82.2%
- Activity [27]: 28.78%
- Activity [28]: Non-Toxic
- Activity [29]: Dose-dependent effect
- viability at 7.5 µM [30]: 64.7%
- viability at 7.5 µM [31]: 45.6%
- Activity [32]: Dose-dependent effect
- Activity [33]: Dose-dependent effect
- viability at 7.5 µM [34]: 67.2%
- Drug uptake [35]: Not Active
- Activity [36]: Dose-dependent effect
